Results taken from patent US20210330756A1, “Acetylation of Miro1” (University of South Carolina, priority 2020, published 2021).

Key:
[1] = tested on: axonal mitochondrial membrane potential (ΨM); assay: Mitochondrial membrane potential (JC-1 red/green ratio) in axon shafts of DRG neurons; type: cell-based, rat
Text: Considering the above changes in mitochondrial transport, we asked if MAG and CSPG might affect mitochondrial function in axons. Functional mitochondria are needed to generate ATP, and the mitochondrion's membrane potential (ΨM) is thought to reflect its capacity for generating ATP. Increased anterograde transport of mitochondria in axons correlated with higher ΨM, as measured by the ratiometric 5,5′,6,6′-tetrachloro-1,1′,3,3′-tetraethylbenzimidazolcarbocyanine iodide (JC-1) dye (Miller and Sheetz, 2004), and reduced axonal ΨM in Drosophila melanogaster larvae was recently correlated with overall decrease in mitochondrial transport (Liao et al., 2017).
JC-1 (Life Technologies) was used for wm measurements. For this, DRG cultures were equilibrated in culture medium with […] JC-1 for 20 min at 37° C. Medium was replaced, and the cells were maintained at 37° C. in the high-content imaging system on which JC-1 fluorescent signals in green and red wavelengths were acquired. […]
Vesicle trafficking was quantified using differential ImageJ Difference Tracker Plug-in (Andrews et al., 2010). 50-80-μm long unbranched axon segments at approximately the mid-region between growth cone and cell body were analyzed. […] The distance between the growth tip at end of the post-CALI sequence and the pre-CALI baseline was measured using LAS-X software. Movement of ≥0.5 μm toward the axon shaft was counted as retracted. Fluorescence emission of the Mito-KR post-CALI was analyzed using ImageJ. For normalizing intensities across FRAP image sets, fluorescence intensity at each time point was scaled using the LAS-X FRAP module so that the residual fluorescence signal at t=0 min (post-bleach) was set at 0 and the prebleach intensity was set at 100% for each bleached ROI. For axon shaft FRAP analyses, each 50-μm bleached ROI was divided into […], and the fluorescence intensity recovery was measured as described above. […] A minimum of 75 unmyelinated axons was analyzed for each nerve. All unmyelinated axons from each analyzed image were included for quantitative studies. […]

Miro1-AcK105 = Miro1-AcK105 levels in DRG cultures by immunoblotting and immunofluorescence; type: cell-based, rat
Text: The three reported acetylation sites for Miro1 in human cell lines K92, K512, and K618 (Choudhary et al., 2009; Lundby et al., 2012) correspond to K105, K525, and K629 in rat Miro1 (FIG. 6 at D). We generated Lys-to-Ala mutants for K105, K525, and K629 to determine if these Miro1 residues are acetylated in neurons (Myc-Miro1K105A , Myc-Miro1K525A , and […]; FIG. 6 at D). […] To more definitively assess acetylation of K105, we used acetylated Miro1 peptides to generate an anti-Miro1-AcK105 antibody.
For immunoblotting, protein lysates or immunoprecipitates were denatured by boiling in Laemmli sample buffer, fractionated by SDS-PAGE, and transferred to nitrocellulose membranes. Blots were blocked for 1 h at room temperature with 5% nonfat dry milk in TBS with 0.1% Tween 20 (TBST). Primary antibodies diluted in 5% BSA in TBST were added to the membranes and incubated overnight at 4° C. with rocking. Primary antibodies consisted of rabbit anti-Myc (1:2,000; Cell Signaling; 71D10), rabbit anti-RHOT1 antibody (1:1,000; Aviva Systems Biology; ARP44817 P050), rabbit anti-HDAC6 antibody (1:2,000; Cell Signaling; 7558), rabbit anti-ERK1 (1:5,000; Abcam; ab32537), and affinity-purified custom rabbit anti-Miro1-AcK105 (1:2,500; Twiss laboratory, see above) antibodies. For the anti-Miro1-AcK105 antibody, preimmune and test-bleed sera were used at 1:1,000 dilutions to initially evaluate for specificity. After washing in TBST, blots were incubated with HRP-conjugated anti-rabbit IgG antibodies (1:5,000; Jackson Immunoresearch) diluted in blocking buffer for 1 h at room temperature. Signals were detected using ECL Prime (GE Healthcare) after extensive washing.
Standard immunofluorescence methods were used as previously described (Merianda et al., 2009) at room temperature unless specified otherwise. Briefly, coverslips were rinsed in PBS, fixed in buffered 3.7% PFA for 15-20 min, and washed twice in PBS. Cultures were permeabilized with PBS plus 0.3% Triton X-100 (PBST; Sigma-Aldrich) for 5 min. Coverslips were blocked in 2% BSA and 2% FBS (Gemini) for 1 h. […]

SMILES	effect on MAG-Fc- or CSPG-dependent declines in ΨM ([1]; 10 μM TubA)	effect on Rho activator- and thapsigargin-dependent decrease in ΨM ([1]; +10 μM TubA)	anti-Miro1-AcK105 immunoblot signal (Miro1-AcK105; DRG lysates ± 10 μM TubA)	ΨM in the axons ([1]; 1 μg/ml Rho activator or 1 μM thapsigargin)	Miro1-AcK105 overall by immunoblotting (Miro1-AcK105; 10 μg/ml aggrecan or 1 μM thapsigargin, 4 h)	Miro1-AcK105 in axons by immunofluorescence (Miro1-AcK105; aggrecan- or thapsigargin-treated cultures)
CN1CCc2c(c3ccccc3n2Cc2ccc(C(=O)NO)cc2)C1 [TubA, tubastatin]	prevented by inhibition of HDAC6 with TubA	also prevented by HDAC6 inhibition	clear increase in signal			
C/C=C(/C)C(=O)O[C@H]1C(C)=C2[C@H]([C@@H]1OC(=O)CCCCCCC)[C@@](C)(OC(C)=O)C[C@H](OC(=O)CCC)[C@@]1(O)[C@H]2OC(=O)[C@@]1(C)O [thapsigargin]				decreased ΨM	decreased Miro1-AcK105	decreased Miro1-AcK105
